Measured values taken from patent US20260215425A1, “NITRIFICATION INHIBITORS” (The University of Melbourne, priority 2022, published 2026).

Legend:
[1] = biological target: T1, hydroxylamine oxireductase (HOA) (Nitrosomonas europaea, UniProt Q50925); test: standard nitrification inhibition assay with NH2OH as substrate; format: cell-based, N. europaea; details: substrate NH2OH 3 mM, [inhibitor]=0.3 mM, pH 7.5, 30° C., 60 min; read-out: % Inhibition NE
T1 construct: N. europaea and N. multiformis contain naturally both enzymes; endogenous in cells; host or cells: N. europaea pure culture (whole cells in NaPB)
T1 sequence (Q50925 25-570): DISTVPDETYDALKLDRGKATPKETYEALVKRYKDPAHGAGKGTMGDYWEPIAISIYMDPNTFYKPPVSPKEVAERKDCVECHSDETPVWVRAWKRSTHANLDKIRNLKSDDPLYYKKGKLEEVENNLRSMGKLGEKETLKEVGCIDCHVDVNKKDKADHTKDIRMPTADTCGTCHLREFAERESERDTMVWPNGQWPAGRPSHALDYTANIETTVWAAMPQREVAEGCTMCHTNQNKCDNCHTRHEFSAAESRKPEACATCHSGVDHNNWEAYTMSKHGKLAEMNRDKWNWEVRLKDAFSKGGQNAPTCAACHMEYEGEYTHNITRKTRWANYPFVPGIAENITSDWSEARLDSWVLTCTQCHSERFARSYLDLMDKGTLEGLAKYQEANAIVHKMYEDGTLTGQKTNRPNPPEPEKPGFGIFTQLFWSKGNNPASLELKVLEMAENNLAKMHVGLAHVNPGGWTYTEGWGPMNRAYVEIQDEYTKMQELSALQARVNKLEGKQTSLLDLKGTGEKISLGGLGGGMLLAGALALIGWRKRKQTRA

[2] = test system: N. europaea; test: O2 consumption measurements; format: cell-based; details: [NH4+] 3 mM, 20° C.
Protocol: O2 consumption rates of cell suspensions of N. europaea were measured using a Clark-type oxygen electrode (Rank Brothers, Cambridge, UK) mounted in a water-jacketed electrode chamber (3 mL capacity) that was connected to a recirculating cooler (Lauda, Austria). The data were recorded using a Data-trax™ (World Precision Instruments, UK) sensor data collection system. All measurements were taken at 20° C. and 1 mL final reaction solution volume. The polarizing voltage was set to 0.6 V. To calibrate the oxygen signal, an excess (approximately 50 mg) of Na2S2O4 was added to 1 mL of Milli-Q water to chemically remove dissolved O2. […] The voltage at saturated O2 concentration (“100% O2”) was determined by measuring the voltage of the equilibrated aerated reaction system consisting of 1 mL Milli-Q water. Sample measurements were taken as follows: The 1 mL reaction mixture, composed of 980 μL N. europaea cell solution in NaPB (OD600=0.8; corresponding to approximately 468 μg/L protein) was equilibrated for 5 min in the chamber until the voltage reading was stable. […] After 4 min of oxygen consumption (a linear rate coefficient of approximately kobs=k=274.7+20.0 nmol O2 L^−1 s^−1 was determined), 10 μL of the inhibitor stock solution of MPT in DMSO (1.2 mM and 0.6 mM) were added via a 10-μL Eppendorf pipette through a capillary opening, ensuring the emergence of the pipette tip in the solution. […]

For `C#CCn1cc(C)nn1` [Compound 4-MPT, 4-Methyl-1-(prop-2-yn-1yl)-1H-1,2,3-triazole], the inhibition at 300 µM [1] was 28 ± 3%, the “observed rate coefficient kobs for the O2 consumption” value ([2]; [MPT]=0.6 mM) was 0.0027 s⁻¹ and the “observed rate coefficient kobs for the O2 consumption” value ([2]; [MPT]=1.2 mM) was 0.0045 s⁻¹.
